Legend:
Type in all cases: biochemical
[1] = molecular target: T1, BRaf (Homo sapiens, UniProt P15056); assay: 33PanQinase enzyme assay, BRaf; conditions: ratio IC50(BRaf)/IC50(MKK4)
T1 construct: purchased ProQinase GmbH, Freiburg, Germany (33PanQinase Assay Service)
Method in brief: (§1)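 Radiometric 33PanQinase format: kinase with substrate, ATP and compound (added in 10% DMSO stock) incubated 60 min at 30° C, stopped with 2% H3PO4, ^33Pi incorporation counted by scintillation. Single-concentration data given as % residual activity; IC50 by least-squares fit, with selectivity as IC50(off-target)/IC50(MKK4).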

[2] = molecular target: T2, MKK7 (Homo sapiens, UniProt O14733); assay: 33PanQinase enzyme assay, MKK7; design: purchased ProQinase GmbH, Freiburg, Germany (33PanQinase Assay Service); conditions: ratio IC50(MKK7)/IC50(MKK4)
T2 sequence (O14733 1-419): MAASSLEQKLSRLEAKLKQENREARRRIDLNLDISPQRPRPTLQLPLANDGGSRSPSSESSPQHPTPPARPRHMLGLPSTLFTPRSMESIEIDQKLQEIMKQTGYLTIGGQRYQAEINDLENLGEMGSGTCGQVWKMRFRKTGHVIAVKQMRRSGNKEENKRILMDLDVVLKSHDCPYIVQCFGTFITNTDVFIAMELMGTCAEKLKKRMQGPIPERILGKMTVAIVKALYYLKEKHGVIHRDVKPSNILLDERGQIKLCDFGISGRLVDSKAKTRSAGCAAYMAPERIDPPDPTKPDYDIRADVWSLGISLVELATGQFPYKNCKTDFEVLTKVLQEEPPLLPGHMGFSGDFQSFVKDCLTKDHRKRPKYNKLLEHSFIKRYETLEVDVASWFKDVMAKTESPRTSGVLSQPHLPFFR
Method in brief: as §1

[3] = molecular target: JNK1 (Homo sapiens, UniProt P45983); assay: 33PanQinase enzyme assay, JNK1; design: purchased ProQinase GmbH, Freiburg, Germany (33PanQinase Assay Service); conditions: ratio IC50(JNK1)/IC50(MKK4)
JNK1, sequence (P45983 whole entry): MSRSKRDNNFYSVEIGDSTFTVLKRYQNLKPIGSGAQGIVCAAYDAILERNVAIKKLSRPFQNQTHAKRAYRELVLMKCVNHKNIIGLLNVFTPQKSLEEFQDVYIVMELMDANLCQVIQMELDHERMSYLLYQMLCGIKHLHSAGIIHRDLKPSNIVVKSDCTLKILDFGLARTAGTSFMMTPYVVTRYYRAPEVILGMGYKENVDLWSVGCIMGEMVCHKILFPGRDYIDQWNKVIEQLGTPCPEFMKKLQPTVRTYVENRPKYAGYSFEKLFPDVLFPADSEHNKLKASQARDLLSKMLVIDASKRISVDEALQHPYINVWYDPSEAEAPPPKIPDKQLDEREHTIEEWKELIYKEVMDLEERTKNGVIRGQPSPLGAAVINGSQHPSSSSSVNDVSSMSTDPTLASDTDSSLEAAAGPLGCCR
Method in brief: as §1

[4] = molecular target: T3, MKK4 (Homo sapiens, UniProt P45985); assay: 33PanQinase enzyme assay, MKK4; conditions: assay 'IC50'; for IC50: read-out: Potency MKK4 (IC50)
T3 construct: purchased ProQinase GmbH, Freiburg, Germany (33PanQinase Assay Service)
T3 sequence (P45985 1-399): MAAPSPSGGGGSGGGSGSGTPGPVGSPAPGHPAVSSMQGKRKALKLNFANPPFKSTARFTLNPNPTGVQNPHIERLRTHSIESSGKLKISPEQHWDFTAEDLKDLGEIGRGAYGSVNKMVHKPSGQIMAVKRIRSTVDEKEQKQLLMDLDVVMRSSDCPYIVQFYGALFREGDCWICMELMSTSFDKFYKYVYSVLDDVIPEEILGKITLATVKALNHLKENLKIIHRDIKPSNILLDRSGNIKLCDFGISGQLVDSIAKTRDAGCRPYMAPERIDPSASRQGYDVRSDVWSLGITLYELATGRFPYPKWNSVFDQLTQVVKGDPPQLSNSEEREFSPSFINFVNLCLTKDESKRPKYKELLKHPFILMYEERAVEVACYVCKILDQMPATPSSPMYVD
Method in brief: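 Radiometric 33PanQinase assay: kinase, substrate, ATP and compound in standard buffer, 60 min at 30 °C; 33Pi incorporation read by scintillation counting.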

T1 sequence (P15056 whole entry, species assumed): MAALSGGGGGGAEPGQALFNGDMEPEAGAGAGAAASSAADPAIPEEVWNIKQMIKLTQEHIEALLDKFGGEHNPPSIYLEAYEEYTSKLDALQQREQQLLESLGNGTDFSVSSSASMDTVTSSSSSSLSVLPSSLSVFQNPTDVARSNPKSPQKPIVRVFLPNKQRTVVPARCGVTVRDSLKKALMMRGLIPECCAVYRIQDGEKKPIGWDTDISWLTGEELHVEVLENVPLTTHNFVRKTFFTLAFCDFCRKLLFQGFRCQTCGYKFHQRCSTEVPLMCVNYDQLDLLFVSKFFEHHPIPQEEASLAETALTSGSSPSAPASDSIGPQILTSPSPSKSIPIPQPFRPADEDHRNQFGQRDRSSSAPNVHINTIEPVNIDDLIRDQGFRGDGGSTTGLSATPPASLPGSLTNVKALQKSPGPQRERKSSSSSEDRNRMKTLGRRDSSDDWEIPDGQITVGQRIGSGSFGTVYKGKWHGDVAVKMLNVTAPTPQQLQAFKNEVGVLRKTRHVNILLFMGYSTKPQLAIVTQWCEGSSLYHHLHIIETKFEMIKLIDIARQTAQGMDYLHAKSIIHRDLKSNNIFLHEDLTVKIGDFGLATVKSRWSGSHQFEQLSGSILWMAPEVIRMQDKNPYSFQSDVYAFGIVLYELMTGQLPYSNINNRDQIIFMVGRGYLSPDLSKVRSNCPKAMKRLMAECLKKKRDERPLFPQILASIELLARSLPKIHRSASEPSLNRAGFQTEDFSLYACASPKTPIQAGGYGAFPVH

SMILES	Selectivity Braf, IC50(off-target)/IC50(MKK4) [1]	Selectivity IVIKK7, IC50(off-target)/IC50(MKK4) [2]	Selectivity JNK1, IC50(off-target)/IC50(MKK4) [3]	IC50 [4]	Potency MKK4 (IC50) [4]
CCCS(=O)(=O)Nc1c(F)ccc(C(=O)c2c[nH]c3ncc(-c4cnc(-c5ccc6nc[nH]c6c5)nc4)cc23)c1F [Example 210, N-(3-(5-(2-(1H-benzo[d]imidazol-6-yl)pyrimidin-5-yl)-1H-pyrrolo[2,3-b]pyridine-3-carbonyl)-2,6-difluorophenyl)propane-1-sulfonamide]	++ (100 ≥ IC50(off-target)/IC50(MKK4) > 10)	++ (100 ≥ IC50(off-target)/IC50(MKK4) > 10)	+ (10 ≥ IC50(off-target)/IC50(MKK4) > 3)	1000 to 10000 nM	
Nc1c(F)ccc(C(=O)c2c[nH]c3ncc(-c4ccc(Cl)cc4)cc23)c1F [Example 212, (3-amino-2,4-difluorophenyl)(5-(4-chlorophenyl)-1H-pyrrolo[2,3-b]pyridin-3-yl)methanone]	+ (10 ≥ IC50(off-target)/IC50(MKK4) > 3)	+++ (IC50(off-target)/IC50(MKK4) > 100)	◯ (3 ≥ IC50(off-target)/IC50(MKK4))	100 to 1000 nM	
CCCS(=O)(=O)Nc1c(F)ccc(C(=O)c2c[nH]c3ncc(-c4ccccc4Cl)cc23)c1F [Example 213, N-(3-(5-(2-chlorophenyl)-1H-pyrrolo[2,3-b]pyridine-3-carbonyl)-2,6-difluorophenyl)propane-1-sulfonamide]	+++ (IC50(off-target)/IC50(MKK4) > 100)	+++ (IC50(off-target)/IC50(MKK4) > 100)	++ (100 ≥ IC50(off-target)/IC50(MKK4) > 10)	< 100 nM	
CS(=O)(=O)Nc1c(F)ccc(C(=O)c2c[nH]c3ncc(-c4cccc5ccccc45)cc23)c1F [Example 214, N-(2,6-difluoro-3-(5-(naphthalen-1-yl)-1H-pyrrolo[2,3-b]pyridine-3-carbonyl)phenyl)methanesulfonamide]	+++ (IC50(off-target)/IC50(MKK4) > 100)	+++ (IC50(off-target)/IC50(MKK4) > 100)	++ (100 ≥ IC50(off-target)/IC50(MKK4) > 10)	100 to 1000 nM	
CCCS(=O)(=O)Nc1c(F)ccc(C(=O)c2c[nH]c3ncc(-c4ccccc4C)cc23)c1F [Example 215, N-(2,6-difluoro-3-(5-(o-tolyl)-1H-pyrrolo[2,3-b]pyridine-3-carbonyl)phenyl)propane-1-sulfonamide]	◯ (3 ≥ IC50(off-target)/IC50(MKK4))	+++ (IC50(off-target)/IC50(MKK4) > 100)	+ (10 ≥ IC50(off-target)/IC50(MKK4) > 3)	100 to 1000 nM	
CCCS(=O)(=O)Nc1c(F)ccc(C(=O)c2c[nH]c3ncc(-c4ccc(F)cc4)cc23)c1F [Example 216, N-(2,6-difluoro-3-(5-(4-fluorophenyl)-1H-pyrrolo[2,3-b]pyridine-3-carbonyl)phenyl)propane-1-sulfonamide]	+++ (IC50(off-target)/IC50(MKK4) > 100)	+++ (IC50(off-target)/IC50(MKK4) > 100)	+++ (IC50(off-target)/IC50(MKK4) > 100)	< 100 nM	
CCCS(=O)(=O)Nc1c(F)ccc(C(=O)c2c[nH]c3ncc(-c4ccc(F)cc4C)cc23)c1F [Example 217, N-(2,6-difluoro-3-(5-(4-fluoro-2-methylphenyl)-1H-pyrrolo[2,3-b]pyridine-3-carbonyl)phenyl)propane-1-sulfonamide]	+++ (IC50(off-target)/IC50(MKK4) > 100)	+++ (IC50(off-target)/IC50(MKK4) > 100)	+++ (IC50(off-target)/IC50(MKK4) > 100)	< 100 nM	
CCCS(=O)(=O)Nc1c(F)ccc(C(=O)c2c[nH]c3ncc(-c4ccc(-c5nnn[nH]5)cc4)cc23)c1F [Example 219, N-(3-(5-(4-(1H-tetrazol-5-yl)phenyl)-1H-pyrrolo[2,3-b]pyridine-3-carbonyl)-2,6-difluorophenyl)propane-1-sulfonamide]	+++ (IC50(off-target)/IC50(MKK4) > 100)	+++ (IC50(off-target)/IC50(MKK4) > 100)	++ (100 ≥ IC50(off-target)/IC50(MKK4) > 10)		++·+
CCCS(=O)(=O)Nc1c(F)ccc(C(=O)c2c[nH]c3ncc(-c4ccc(S(N)(=O)=O)cc4)cc23)c1F [Example 220, 4-(3-(2,4-difluoro-3-(propylsulfonamido)benzoyl)-1H-pyrrolo[2,3-b]pyridin-5-yl)benzenesulfonamide]	++ (100 ≥ IC50(off-target)/IC50(MKK4) > 10)	+++ (IC50(off-target)/IC50(MKK4) > 100)	++ (100 ≥ IC50(off-target)/IC50(MKK4) > 10)	< 100 nM	
CCCS(=O)(=O)Nc1c(F)ccc(C(=O)c2c[nH]c3ncc(-c4ccc(F)cc4Cl)cc23)c1F [Example 221, N-(3-(5-(2-chloro-4-fluorophenyl)-1H-pyrrolo[2,3-b]pyridine-3-carbonyl)-2,6-difluorophenyl)propane-1-sulfonamide]	+++ (IC50(off-target)/IC50(MKK4) > 100)	+++ (IC50(off-target)/IC50(MKK4) > 100)	++ (100 ≥ IC50(off-target)/IC50(MKK4) > 10)	< 100 nM	
CCCS(=O)(=O)Nc1c(F)ccc(C(=O)c2c[nH]c3ncc(-c4ccc(C(=O)O)cc4)cc23)c1F [Example 222, 4-(3-(2,4-difluoro-3-(propylsulfonamido)benzoyl)-1H-pyrrolo[2,3-b]pyridin-5-yl)benzoic acid]	+++ (IC50(off-target)/IC50(MKK4) > 100)	+++ (IC50(off-target)/IC50(MKK4) > 100)	++ (100 ≥ IC50(off-target)/IC50(MKK4) > 10)	< 100 nM	
CCCS(=O)(=O)Nc1c(F)ccc(C(=O)c2c[nH]c3ncc(-c4cccc(C(=O)O)c4)cc23)c1F [Example 223, 3-(3-(2,4-difluoro-3-(propylsulfonamido)benzoyl)-1H-pyrrolo[2,3-b]pyridin-5-yl)benzoic acid]	+ (10 ≥ IC50(off-target)/IC50(MKK4) > 3)	+++ (IC50(off-target)/IC50(MKK4) > 100)	++ (100 ≥ IC50(off-target)/IC50(MKK4) > 10)	< 100 nM	
CCCS(=O)(=O)Nc1c(F)ccc(C(=O)c2c[nH]c3ncc(-c4ccccc4C(=O)O)cc23)c1F [Example 224, 2-(3-(2,4-difluoro-3-(propylsulfonamido)benzoyl)-1H-pyrrolo[2,3-b]pyridin-5-yl)benzoic acid]	◯ (3 ≥ IC50(off-target)/IC50(MKK4))	++ (100 ≥ IC50(off-target)/IC50(MKK4) > 10)	◯ (3 ≥ IC50(off-target)/IC50(MKK4))	1000 to 10000 nM	
CCCS(=O)(=O)Nc1c(F)ccc(C(=O)c2c[nH]c3ncc(-c4ccc(Cl)cc4C)cc23)c1F [Example 225, N-(3-(5-(4-chloro-2-methylphenyl)-1H-pyrrolo[2,3-b]pyridine-3-carbonyl)-2,6-difluorophenyl)propane-1-sulfonamide]	+++ (IC50(off-target)/IC50(MKK4) > 100)	+++ (IC50(off-target)/IC50(MKK4) > 100)	++ (100 ≥ IC50(off-target)/IC50(MKK4) > 10)	< 100 nM	
CCCCS(=O)(=O)Nc1c(F)ccc(C(=O)c2c[nH]c3ncc(-c4ccc(OC)cc4Cl)cc23)c1F [Example 226, N-(3-(5-(2-chloro-4-methoxyphenyl)-1H-pyrrolo[2,3-b]pyridine-3-carbonyl)-2,6-difluorophenyl)butane-1-sulfonamide]	+++ (IC50(off-target)/IC50(MKK4) > 100)	+++ (IC50(off-target)/IC50(MKK4) > 100)	++ (100 ≥ IC50(off-target)/IC50(MKK4) > 10)	< 100 nM	

Source: patent US11912701B2, “Protein kinase inhibitors for promoting liver regeneration or reducing or preventing hepatocyte death” (HEPAREGENIX GMBH, priority 2018, dated 2024)
